How the values were obtained:
[1] = biological target: T1, mouse P23H opsin (Mus musculus, UniProt P15409, P23H); experiment: Immunostain and image-based high-content analysis of P23H mutant opsin in NIH3T3 cells; type: cell-based; conditions: for effect on cell number: NIH3T3 cells, YC-001 up to 40 μM, 9-cis-retinal higher than 10 μM; for P23H opsin on the plasma membrane: dose-dependent, FIG. 2; for Immunostaining HCS MEM-Total ratio Max (fit) / EC50: ratio of P23H rod opsin fluorescence on plasma membrane to whole cell; for EC50: 1440 min, read-out: Immunostaining HCS MEM-Total ratio EC50
T1 construct: expressed in transfected cells
Description: Three NIH3T3 stable cell lines, NIH3T3-(WT-opsin/GFP), NIH3T3-(P23H-opsin/GFP), and NIH3T3-(GFP) were previously generated which stably express mouse WT opsin and GFP; P23H opsin and GFP; and only GFP, respectively. GFP is expressed separately from opsin in these cell lines. NIH3T3 cells were from ATCC. DNA constructs for generating these stable cell lines were confirmed by Sanger sequencing. Expression of GFP was confirmed by green fluorescence imaging, and expression of P23H and WT opsin were confirmed by immunoblots.
To characterize the effect of active compounds on the localization of P23H mutant opsin in mammalian cells, an image-based assay was used with cells immunostained for WT or P23H mutant opsin protein. Briefly, NIH3T3-(P23H-opsin/GFP) or NIH3T3-(WT-opsin/GFP) cells were seeded at 5,000 cells per well in a 384-well cell-carrier plate (PerkinElmer) and incubated at 37° C. with 5% CO2 for 2 h. Cells were treated with compounds as described for the β-Gal fragment complementation assay and incubated in assay medium for 24 h. The assay medium then was aspirated, and cells were fixed with 4% paraformaldehyde at 20 μL per well for 20 min at RT. Cells were immunostained in one of two ways: cell membranes were either permeabilized with 0.1% Triton X-100 for 15 min or left intact and then were incubated with 10% goat serum (Life Technologies). To detect opsin on the cell plasma membrane only, intact cells were immunostained with 20 μL per well of 20 μg mL^−1 B6-30 anti-rhodopsin antibody that recognizes the N-terminal epitope on the extracellular side of rhodopsin. To detect total opsin, cells were permeabilized with Triton X-100 and immunostained with 50 μg mL^−1 1D4 anti-rhodopsin antibody specific for the C-terminal epitope on the intracellular side of rhodopsin. Opsin immunostaining was visualized by incubating cells with 5 μg mL^−1 Cy3-conjugated goat anti-mouse IgG antibody. Three washes with phosphate-buffered saline (PBS: 10 mM Na2HPO4, 1.8 mM KH2PO4, pH 7.4, 137 mM NaCl, and 2.7 mM KCl) were performed between each step of incubation with antibody. In the last wash with PBS, DAPI was added to each well at 300 nM. Fluorescence images were obtained with the Operetta High Content Imaging System (PerkinElmer) using a 20× long objective. Five fields were taken of each well for cell images using three channels for fluorescence: GFP (100 ms), Cy3 (300 ms), and DAPI (50 ms). Images were analyzed with Acapella software from the Columbus data storage and analysis system (PerkinElmer). For cells immunostained with opsin on the non-permeabilized cell membrane only, an average of total fluorescence intensity of Cy3 per cell was used to quantify opsin in each well of the 384-well plate. For cells immunostained with opsin in permeabilized whole cells, an average ratio of Cy3 intensity on the cell plasma membrane (PM) to that of the entire cell (opsin ratio PM-to-total) was calculated for each well of a 384-well plate to quantify opsin transport to the plasma membrane. The plasma membrane was defined within ±5% of the cell border.

[2] = biological target: T2, bovine opsin (Bos taurus, UniProt P02699); experiment: Ligand-opsin binding by Trp fluorescence quenching in ROS disc membranes; conditions: for EC50: opsin in disc membranes, read-out: EC50 of Trp fluorescence quenching at 330 nm
T2 construct: ROS membranes were isolated from bovine retinas under dim red light; from tissue; host or cells: bovine retina rod outer segment (ROS) membranes, bleached with hydroxylamine
T2 sequence (P02699 whole entry): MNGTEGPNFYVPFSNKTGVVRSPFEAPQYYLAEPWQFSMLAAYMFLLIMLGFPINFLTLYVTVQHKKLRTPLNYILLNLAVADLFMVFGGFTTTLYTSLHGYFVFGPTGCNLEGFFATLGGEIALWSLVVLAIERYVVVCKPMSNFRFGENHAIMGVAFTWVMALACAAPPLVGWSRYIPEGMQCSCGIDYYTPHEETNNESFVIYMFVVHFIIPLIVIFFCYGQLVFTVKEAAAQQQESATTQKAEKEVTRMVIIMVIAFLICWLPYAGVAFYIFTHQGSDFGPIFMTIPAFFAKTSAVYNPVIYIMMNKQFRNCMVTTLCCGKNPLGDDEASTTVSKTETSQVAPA
Description: ROS membranes were isolated from bovine retinas under dim red light. To remove membrane associated proteins, ROS membranes were washed with a hypotonic buffer composed of 5 mM bis-tris propane (BTP) and 1 mM EDTA, pH 7.5, followed by gentle homogenization with subsequent centrifugation at 25,000 g for 30 min. This procedure was repeated four times. The final membrane pellet was suspended in 10 mM sodium phosphate buffer, pH 7.0, and 50 mM hydroxylamine to a 3 mg mL^−1 concentration of rhodopsin, placed on ice and illuminated with a 150 Watt bulb for 30 min. Membranes were pelleted by centrifugation at 16,000 g for 5 min and then washed four times with 10 mM sodium phosphate buffer, pH 7.0, and 2% bovine serum albumin followed by 4 washes with 10 mM sodium phosphate buffer, pH 7.0, and 2 washes with 20 mM BTP, pH 7.5, and 100 mM NaCl. The concentration of opsin was measured with a UV-visible spectrophotometer and quantified using the absorption coefficient ε280 nm=81,200 M^−1 cm^−1.
Emission spectra were recorded with a Perkin Elmer L55 Luminescence Spectrophotometer at 20° C. between 300 and 450 nm after excitation at 295 nm, with excitation and emission slit bands set at 5 and 10 nm, respectively. Changes in Trp fluorescence (ΔF/F0; where ΔF is the difference between the initial Trp fluorescence recorded at 330 nm (F0) and Trp fluorescence recorded at 330 nm at a specified YC-001 concentration) were plotted as a function of the ligand concentration. Binding curves were fitted by the Hill function using Origin software for each compound and the EC50 was calculated. All experimental data were corrected for background and self-absorption of excitation and emission light (inner filter effect).

[3] = biological target: T3, bovine rod opsin (Bos taurus, UniProt P02699); experiment: Gt activation assay; type: biochemical
T3 construct: Constitutive activity of bovine opsin in disc membranes; from tissue; host or cells: bovine ROS membranes (opsin membranes and Gt both from bovine ROS)
T3 sequence (P02699 whole entry): as above
Description: Gt was extracted and purified from frozen bovine ROS membranes as described in Preparation of Opsin Membranes. The intrinsic increase in the fluorescence from Gtα was measured with a L55 luminescence spectrophotometer (PerkinElmer Life Sciences) using an excitation and emission wavelengths of 300 and 345 nm, respectively. […] DMSO-treated opsin membranes were used to obtain a baseline for the basal activity of opsin. The molar ratio of opsin to Gt was 1:10, with opsin at a concentration of 100 nM and Gt at 1000 nM. […] This step was followed by the addition of 300 μM GTPγS (Sigma-Aldrich) to determine the GTPγS-induced complex dissociation and corresponding fluorescence changes. Gt activation rates were determined and plotted for the first 100 s of the Gt activation assay.

Structure (SMILES): O=C1OCC(c2ccc(Cl)s2)=C1c1cccs1 [YC-001]
- ratio of P23H opsin stain in the ER region to total P23H opsin staining ([1]; FIG. 2M,N): decreased
- effect on cell number [1]: did not affect cell number
- P23H opsin on the plasma membrane [1]: increased
- Immunostaining HCS MEM-Total ratio Max (fit) [1]: 0.030
- EC50 [1]: 2750 nM
- EC50 [2]: 980 ± 50 nM
- ln(kinitial), initial rate of Gt activation for opsin ([3]; 40 μM compound, basal opsin activity): −6.1
- ln(kinitial), rate of Gt activation of regenerated isorhodopsin upon illumination ([3]; co-treated with 40 μM 9-cis-retinal and 40 μM YC-001): −4.9

Structure (SMILES): O=C(CCCCCN1C(=O)c2cccc3cccc(c23)C1=O)NO [Scriptaid, reference compound]
- Immunostaining HCS MEM-Total ratio Max (fit) [1]: 0.070
- EC50 [1]: 380 nM
- effect on Trp fluorescence ([2]; FIG. 3G): didn't affect Trp fluorescence

Structure (SMILES): CC1=C(/C=C/C(C)=C\C=C\C(C)=C\C=O)C(C)(C)CCC1 [9-cis-retinal, reference compound]
- effect on cell number [1]: killed most cells
- P23H opsin on the plasma membrane [1]: increased
- Immunostaining HCS MEM-Total ratio Max (fit) [1]: 0.019
- EC50 [1]: 377 nM
- EC50 [2]: 1200 ± 100 nM
- ln(kinitial), rate of Gt activation of regenerated isorhodopsin upon illumination ([3]; 40 μM 9-cis-retinal alone): −4.6

— US12251373B2, “Compounds and methods of treating retinal degeneration” (CASE WESTERN RESERVE UNIVERSITY, priority 2017, dated 2025)
